Measurements from US11254663B2 (BRISTOL-MYERS SQUIBB COMPANY, priority 2019, dated 2022).
pEC50: −log10 of the molar value.

Molecular target: FXR (Homo sapiens (Human), UniProt Q96RI1)
Assay: FXR EC50 (FXR agonist potency reported with each Example)
Type: cell-based

FXR, sequence (Q96RI1 262-486): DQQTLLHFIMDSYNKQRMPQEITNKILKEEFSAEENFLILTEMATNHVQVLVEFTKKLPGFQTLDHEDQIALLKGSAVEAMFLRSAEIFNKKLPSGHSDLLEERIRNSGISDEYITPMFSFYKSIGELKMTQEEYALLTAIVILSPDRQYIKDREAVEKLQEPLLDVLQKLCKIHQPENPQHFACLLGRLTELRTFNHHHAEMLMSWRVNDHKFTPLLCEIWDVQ

Question: CC1(C(=O)N(CC23CCC(c4nc(C(C)(C)C)no4)(CC2)CC3)c2cccc(-c3nc(C4CC4)no3)c2)COC1 [Example 191, N-((4-(3-(tert-butyl)-1,2,4-oxadiazol-5-yl)bicyclo[2.2.2]octan-1-yl)methyl)-N-(3-(3-cyclopropyl-1,2,4-oxadiazol-5-yl)phenyl)-3-methyloxetane-3-carboxamide] was tested. Which pEC50 did it give?
Answer: 6.08

Question: With CC1(c2nc(-c3cccc(N(CC45CCC(c6ccc(C(F)(F)F)cn6)(CC4)CC5)C(=O)C45CC(F)(C4)C5)c3)no2)CC1 [Example 186, 3-fluoro-N-(3-(5-(1-methylcyclopropyl)-1,2,4-oxadiazol-3-yl)phenyl)-N-((4-(5-(trifluoromethyl)pyridin-2-yl)bicyclo[2.2.2]octan-1-yl)methyl)bicyclo[1.1.1]pentane-1-carboxamide] as the compound, how does the pEC50 read?
Answer: 6.20

Question: With CC(C)(C)c1nc(C23CCC(CN(C(=O)C45CC(F)(C4)C5)c4cncc(-c5nc(C6CC6)no5)c4)(CC2)CC3)no1 [Example 206, N-((4-(5-(tert-butyl)-1,2,4-oxadiazol-3-yl)bicyclo[2.2.2]octan-1-yl)methyl)-N-(5-(3-cyclopropyl-1,2,4-oxadiazol-5-yl)pyridin-3-yl)-3-fluorobicyclo[1.1.1]pentane-1-carboxamide] as the compound, how does the pEC50 read?
Answer: 7.31

Question: With Cn1cc(-c2cccc(N(CC34CCC(c5nc(C6CC6)no5)(CC3)CC4)C(=O)C3CC(F)(F)C3)c2)nc1C1CC1 [Example 131, N-((4-(3-cyclopropyl-1,2,4-oxadiazol-5-yl)bicyclo[2.2.2]octan-1-yl)methyl)-N-(3-(2-cyclopropyl-1-methyl-1H-imidazol-4-yl)phenyl)-3,3-difluorocyclobutane-1-carboxamide] as the compound, how does the pEC50 read?
Answer: 5.84

Question: COCc1nc(-c2cccc(N(CC34CCC(c5nc(C6CC6)no5)(CC3)CC4)C(=O)C3CCC(F)(F)C3)c2)cs1 (stereo not drawn) [Example 74, N-((4-(3-cyclopropyl-1,2,4-oxadiazol-5-yl)bicyclo[2.2.2]octan-1-yl)methyl)-3,3-difluoro-N-(3-(2-(methoxymethyl)thiazol-4-yl)phenyl)cyclopentane-1-carb oxamide] was tested. Which pEC50 did it give?
Answer: 6.66

Question: O=C(N(CC12CCC(c3nc(C4CC4)no3)(CC1)CC2)c1cccc(-c2ccn(C3COC3)n2)c1)C12CC(F)(C1)C2 [Example 149, N-((4-(3-cyclopropyl-1,2,4-oxadiazol-5-yl)bicyclo[2.2.2]octan-1-yl)methyl)-3-fluoro-N-(3-(1-(oxetan-3-yl)-1H-pyrazol-3-yl)phenyl)bicyclo[1.1.1]pentane-1-carboxamide] was tested. Which pEC50 did it give?
Answer: 6.95

Question: Cc1noc(C23CCC(CN(C(=O)C45CC(F)(C4)C5)c4cccc(-c5cnc(C6CCOCC6)o5)c4)(CC2)CC3)n1 [Example 34, 3-Fluoro-N-((4-(3-methyl-1,2,4-oxadiazol-5-yl)bicyclo[2.2.2]octan-1-yl)methyl)-N-(3-(2-(tetrahydro-2H-pyran-4-yl)oxazol-5-yl)phenyl)bicyclo[1.1.1]pentane-1-carboxamide] was tested. Which pEC50 did it give?
Answer: 5.82

Question: N#CC1(c2ccc(C34CCC(CN(C(=O)C5CC(F)(F)C5)c5cccc(-c6nc(C7CC7)no6)c5)(CC3)CO4)cc2)CC1 [Example 145, N-((1-(4-(1-cyanocyclopropyl)phenyl)-2-oxabicyclo[2.2.2]octan-4-yl)methyl)-N-(3-(3-cyclopropyl-1,2,4-oxadiazol-5-yl)phenyl)-3,3-difluorocyclobutane-1-carboxamide] was tested. Which pEC50 did it give?
Answer: 5.36

Question: With CC1(c2nc(-c3cccc(N(CC45CCC(c6nc(C7CC7)no6)(CC4)CC5)C(=O)C45CC(F)(C4)C5)c3)no2)CC1 [Example 106, N-((4-(3-cyclopropyl-1,2,4-oxadiazol-5-yl)bicyclo[2.2.2]octan-1-yl)methyl)-3-fluoro-N-(3-(5-(1-methylcyclopropyl)-1,2,4-oxadiazol-3-yl)phenyl)bicyclo[1.1.1]pentane-1-carboxamide] as the compound, how does the pEC50 read?
Answer: 7.24

Question: How did the pEC50 turn out when O=C(N(CC12CCC(c3nc(C4CC4)no3)(CC1)CC2)c1cccc(-c2noc(C3(O)CC3)n2)c1)C12CC(F)(C1)C2 [Example 110, N-((4-(3-cyclopropyl-1,2,4-oxadiazol-5-yl)bicyclo[2.2.2]octan-1-yl)methyl)-3-fluoro-N-(3-(5-(1-hydroxycyclopropyl)-1,2,4-oxadiazol-3-yl)phenyl)bicyclo[1.1.1]pentane-1-carboxamide] was run?
Answer: 7.06

Question: How did the pEC50 turn out when O=C(C1CCC(F)(F)C1)N(CC12CCC(c3nc(C4CC4)no3)(CC1)CC2)c1cccc(-c2nc(C3CC3)no2)c1 (stereo not drawn) [Example 11, N-((4-(3-cyclopropyl-1,2,4-oxadiazol-5-yl)bicyclo[2.2.2]octan-1-yl)methyl)-N-(3-(3-cyclopropyl-1,2,4-oxadiazol-5-yl)phenyl)-3,3-difluorocyclopentane-1-carboxamide] was run?
Answer: 6.55

Question: How did the pEC50 turn out when Cc1csc(-c2cccc(N(CC34CCC(c5nc(C6CC6)no5)(CC3)CC4)C(=O)C34CC(F)(C3)C4)c2)n1 [Example 151, N-((4-(3-cyclopropyl-1,2,4-oxadiazol-5-yl)bicyclo[2.2.2]octan-1-yl)methyl)-3-fluoro-N-(3-(4-methylthiazol-2-yl)phenyl)bicyclo[1.1.1]pentane-1-carboxamide] was run?
Answer: 7.10

Question: With CC(C)(C)c1nc(C23CCC(CN(C(=O)C45CC(F)(C4)C5)c4cc(-c5nc(C6CC6)no5)ccn4)(CC2)CC3)no1 [Example 210, N-((4-(5-(tert-butyl)-1,2,4-oxadiazol-3-yl)bicyclo[2.2.2]octan-1-yl)methyl)-N-(4-(3-cyclopropyl-1,2,4-oxadiazol-5-yl)pyridin-2-yl)-3-fluorobicyclo[1.1.1]pentane-1-carboxamide] as the compound, how does the pEC50 read?
Answer: 7.32

Question: With COc1cc(-c2cccc(N(CC34CCC(c5nc(C)no5)(CC3)CC4)C(=O)C34CC(F)(C3)C4)c2)ccn1 [Example 228, 3-fluoro-N-(3-(2-methoxypyridin-4-yl)phenyl)-N-((4-(3-methyl-1,2,4-oxadiazol-5-yl)bicyclo[2.2.2]octan-1-yl)methyl)bicyclo[1.1.1]pentane-1-carboxamide] as the compound, how does the pEC50 read?
Answer: 6.35

Question: How did the pEC50 turn out when O=C(C1CC(F)(F)C1)N(CC12CCC(c3nc(C4CC4)no3)(CC1)OC2)c1cccc(-c2cc(C3CC3)on2)c1 [Example 200, N-((1-(3-cyclopropyl-1,2,4-oxadiazol-5-yl)-2-oxabicyclo[2.2.2]octan-4-yl)methyl)-N-(3-(5-cyclopropylisoxazol-3-yl)phenyl)-3,3-difluorocyclobutane-1-carboxamide] was run?
Answer: 6.28

Question: With CC(C)(O)c1nc(-c2cccc(N(CC34CCC(c5nc(C6CC6)no5)(CC3)CC4)C(=O)C34CC(F)(C3)C4)c2)cs1 [Example 31, N-((4-(3-cyclopropyl-1,2,4-oxadiazol-5-yl)bicyclo[2.2.2]octan-1-yl)methyl)-3-fluoro-N-(3-(2-(2-hydroxypropan-2-yl)thiazol-4-yl)phenyl)bicyclo[1.1.1]pentane-1-carboxamide] as the compound, how does the pEC50 read?
Answer: 6.59

Question: With CCc1noc(-c2cccc(N(CC34CCC(c5ccc(C(C)(C)C#N)cc5)(CC3)OC4)C(=O)C34CC(F)(C3)C4)c2)n1 [Example 47, N-((1-(4-(2-cyanopropan-2-yl)phenyl)-2-oxabicyclo[2.2.2]octan-4-yl)methyl)-N-(3-(3-ethyl-1,2,4-oxadiazol-5-yl)phenyl)-3-fluorobicyclo[1.1.1]pentane-1-carboxamide] as the compound, how does the pEC50 read?
Answer: 6.52

Question: CCc1noc(-c2cccc(N(CC34CCC(c5nc(C6CC6)no5)(CC3)CC4)C(=O)C34CC(F)(C3)C4)c2)n1 [Example 6, N-((4-(3-cyclopropyl-1,2,4-oxadiazol-5-yl)bicyclo[2.2.2]octan-1-yl)methyl)-N-(3-(3-ethyl-1,2,4-oxadiazol-5-yl)phenyl)-3-fluorobicyclo[1.1.1]pentane-1-carboxamide] was tested. Which pEC50 did it give?
Answer: 6.87
